Test results taken from the supplement of paper PMC10307832.

Key:
Assay in all cases: relative viability (nuclei count vs DMSO), 5 days (fraction); higher = more cells survive
[1] = tested on: NCI-H441
Procedure, shortened: (§1)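 For relative viability, nuclei counts in treated wells were divided by those in vehicle wells. Lung cancer cell lines had been pin-tool dosed in 1536-well plates the day after seeding and cultured for 5 days, then fixed and stained in one step (final 0.05% Triton X-100, 1% formaldehyde, 1 ug/ml Hoechst) and imaged at 4×. Doses were one drug alone or a fixed anchor-drug dose plus five library-drug doses (not always all listed) in √10 steps, and values are duplicate-plate medians.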

[2] = tested on: NCI-H358
Procedure, shortened: as §1

[3] = tested on: SW 1573
Procedure, shortened: as §1

[4] = tested on: LC-2-ad
Procedure, shortened: as §1

[5] = tested on: NCI-H1734
Procedure, shortened: as §1

[6] = tested on: NCI-H838
Procedure, shortened: as §1

[7] = tested on: EPLC-272H
Procedure, shortened: as §1

[8] = tested on: ABC-1
Procedure, shortened: as §1

[9] = tested on: NCI-H647
Procedure, shortened: as §1

[10] = tested on: NCI-H1915
Procedure, shortened: as §1

[11] = tested on: HCC-15
Procedure, shortened: as §1

[12] = tested on: UMC-11
Procedure, shortened: as §1

[13] = tested on: NCI-H2009
Procedure, shortened: as §1

[14] = tested on: A-427
Procedure, shortened: as §1

[15] = tested on: NCI-H322M
Procedure, shortened: as §1

[16] = tested on: NCI-H2023
Procedure, shortened: as §1

[17] = tested on: NCI-H2347
Procedure, shortened: as §1

[18] = tested on: NCI-H1944
Procedure, shortened: as §1

[19] = tested on: RERF-LC-KJ
Procedure, shortened: as §1

[20] = tested on: LK-2
Procedure, shortened: as §1

Question: How did the relative viability ([1]; first compound 0.002 µM) turn out when `CCNC(=O)c1noc(-c2cc(C(C)C)c(O)cc2O)c1-c1ccc(CN2CCOCC2)cc1` [Luminespib] + C[C@@H](Oc1cc(-c2cnn(C3CCNCC3)c2)cnc1N)c1c(Cl)ccc(F)c1Cl [Crizotinib] (partner 1 µM) was run?
Answer: The relative viability was 0.884.

Question: And the relative viability ([1]; first compound 0.006325 µM)?
Answer: The relative viability was 0.719.

Question: What about the relative viability ([1]; first compound 0.02 µM) of the same compound?
Answer: Its relative viability is 0.904.

Question: What about the relative viability ([1]; first compound 0.06325 µM) of the same compound?
Answer: The relative viability was 0.119.

Question: What about the relative viability ([1]; first compound 0.2 µM) of the same compound?
Answer: The relative viability was 0.109.

Question: What about the relative viability ([2]; first compound 0.002 µM) of the same compound?
Answer: The relative viability was 0.699.

Question: And the relative viability ([2]; first compound 0.006325 µM)?
Answer: Its relative viability is 0.647.

Question: And the relative viability ([2]; first compound 0.02 µM)?
Answer: Its relative viability is 0.608.

Question: What about the relative viability ([2]; first compound 0.06325 µM) of the same compound?
Answer: Its relative viability is 0.0797.

Question: What about the relative viability ([2]; first compound 0.2 µM) of the same compound?
Answer: The relative viability was 0.0988.

Question: And the relative viability ([3]; first compound 0.002 µM)?
Answer: The relative viability was 0.833.

Question: What about the relative viability ([3]; first compound 0.006325 µM) of the same compound?
Answer: The relative viability was 0.853.

Question: And the relative viability ([3]; first compound 0.02 µM)?
Answer: Its relative viability is 0.757.

Question: And the relative viability ([3]; first compound 0.06325 µM)?
Answer: Its relative viability is 0.191.

Question: What about the relative viability ([3]; first compound 0.2 µM) of the same compound?
Answer: Its relative viability is 0.0946.

Question: What about the relative viability ([4]; first compound 0.002 µM) of the same compound?
Answer: The relative viability was 0.48.

Question: What about the relative viability ([4]; first compound 0.006325 µM) of the same compound?
Answer: Its relative viability is 0.482.

Question: And the relative viability ([4]; first compound 0.06325 µM)?
Answer: The relative viability was 0.289.

Question: And the relative viability ([4]; first compound 0.2 µM)?
Answer: The relative viability was 0.262.

Question: And the relative viability ([5]; first compound 0.002 µM)?
Answer: The relative viability was 0.77.

Question: And the relative viability ([5]; first compound 0.006325 µM)?
Answer: The relative viability was 0.612.

Question: And the relative viability ([5]; first compound 0.02 µM)?
Answer: The relative viability was 0.566.

Question: And the relative viability ([5]; first compound 0.06325 µM)?
Answer: The relative viability was 0.135.

Question: And the relative viability ([5]; first compound 0.2 µM)?
Answer: Its relative viability is 0.0997.

Question: What about the relative viability ([6]; first compound 0.002 µM) of the same compound?
Answer: The relative viability was 0.947.

Question: What about the relative viability ([6]; first compound 0.006325 µM) of the same compound?
Answer: Its relative viability is 0.78.

Question: And the relative viability ([6]; first compound 0.02 µM)?
Answer: The relative viability was 0.755.

Question: What about the relative viability ([6]; first compound 0.06325 µM) of the same compound?
Answer: The relative viability was 0.285.

Question: And the relative viability ([6]; first compound 0.2 µM)?
Answer: The relative viability was 0.101.

Question: What about the relative viability ([7]; first compound 0.006325 µM) of the same compound?
Answer: Its relative viability is 0.892.

Question: What about the relative viability ([7]; first compound 0.02 µM) of the same compound?
Answer: The relative viability was 0.655.

Question: And the relative viability ([7]; first compound 0.06325 µM)?
Answer: The relative viability was 0.88.

Question: What about the relative viability ([7]; first compound 0.2 µM) of the same compound?
Answer: Its relative viability is 0.917.

Question: What about the relative viability ([8]; first compound 0.002 µM) of the same compound?
Answer: Its relative viability is 1.55.

Question: And the relative viability ([8]; first compound 0.006325 µM)?
Answer: Its relative viability is 0.877.

Question: And the relative viability ([8]; first compound 0.02 µM)?
Answer: The relative viability was 1.06.

Question: What about the relative viability ([8]; first compound 0.06325 µM) of the same compound?
Answer: The relative viability was 0.19.

Question: And the relative viability ([8]; first compound 0.2 µM)?
Answer: Its relative viability is 0.18.

Question: What about the relative viability ([9]; first compound 0.002 µM) of the same compound?
Answer: The relative viability was 1.22.

Question: What about the relative viability ([9]; first compound 0.006325 µM) of the same compound?
Answer: The relative viability was 1.07.

Question: And the relative viability ([9]; first compound 0.02 µM)?
Answer: The relative viability was 1.15.

Question: And the relative viability ([9]; first compound 0.06325 µM)?
Answer: The relative viability was 0.0916.

Question: And the relative viability ([9]; first compound 0.2 µM)?
Answer: The relative viability was 0.0805.

Question: What about the relative viability ([10]; first compound 0.002 µM) of the same compound?
Answer: Its relative viability is 0.952.

Question: And the relative viability ([10]; first compound 0.006325 µM)?
Answer: Its relative viability is 0.897.

Question: What about the relative viability ([10]; first compound 0.02 µM) of the same compound?
Answer: Its relative viability is 0.958.

Question: And the relative viability ([10]; first compound 0.06325 µM)?
Answer: The relative viability was 0.904.

Question: And the relative viability ([10]; first compound 0.2 µM)?
Answer: The relative viability was 0.851.

Question: And the relative viability ([11]; first compound 0.002 µM)?
Answer: The relative viability was 0.836.

Question: What about the relative viability ([11]; first compound 0.006325 µM) of the same compound?
Answer: The relative viability was 0.863.

Question: What about the relative viability ([11]; first compound 0.02 µM) of the same compound?
Answer: The relative viability was 0.901.

Question: And the relative viability ([11]; first compound 0.06325 µM)?
Answer: Its relative viability is 0.473.

Question: What about the relative viability ([11]; first compound 0.2 µM) of the same compound?
Answer: Its relative viability is 0.412.

Question: And the relative viability ([12]; first compound 0.002 µM)?
Answer: The relative viability was 0.606.

Question: What about the relative viability ([12]; first compound 0.006325 µM) of the same compound?
Answer: The relative viability was 0.584.

Question: And the relative viability ([12]; first compound 0.02 µM)?
Answer: The relative viability was 0.682.

Question: And the relative viability ([12]; first compound 0.06325 µM)?
Answer: Its relative viability is 0.156.

Question: What about the relative viability ([12]; first compound 0.2 µM) of the same compound?
Answer: The relative viability was 0.107.

Question: What about the relative viability ([13]; first compound 0.002 µM) of the same compound?
Answer: Its relative viability is 1.14.

Question: What about the relative viability ([13]; first compound 0.006325 µM) of the same compound?
Answer: Its relative viability is 0.918.

Question: And the relative viability ([13]; first compound 0.02 µM)?
Answer: Its relative viability is 1.04.

Question: What about the relative viability ([13]; first compound 0.06325 µM) of the same compound?
Answer: The relative viability was 0.0632.

Question: And the relative viability ([13]; first compound 0.2 µM)?
Answer: The relative viability was 0.0663.

Question: What about the relative viability ([14]; first compound 0.002 µM) of the same compound?
Answer: Its relative viability is 1.09.

Question: What about the relative viability ([14]; first compound 0.006325 µM) of the same compound?
Answer: The relative viability was 0.796.

Question: What about the relative viability ([14]; first compound 0.02 µM) of the same compound?
Answer: The relative viability was 0.955.

Question: And the relative viability ([14]; first compound 0.06325 µM)?
Answer: Its relative viability is 0.873.

Question: And the relative viability ([14]; first compound 0.2 µM)?
Answer: Its relative viability is 0.835.

Question: And the relative viability ([15]; first compound 0.002 µM)?
Answer: Its relative viability is 0.925.

Question: What about the relative viability ([15]; first compound 0.006325 µM) of the same compound?
Answer: Its relative viability is 0.924.

Question: What about the relative viability ([15]; first compound 0.02 µM) of the same compound?
Answer: Its relative viability is 0.718.

Question: What about the relative viability ([15]; first compound 0.06325 µM) of the same compound?
Answer: The relative viability was 0.898.

Question: And the relative viability ([15]; first compound 0.2 µM)?
Answer: Its relative viability is 0.808.

Question: What about the relative viability ([16]; first compound 0.002 µM) of the same compound?
Answer: The relative viability was 0.772.

Question: What about the relative viability ([16]; first compound 0.006325 µM) of the same compound?
Answer: Its relative viability is 0.586.

Question: What about the relative viability ([16]; first compound 0.02 µM) of the same compound?
Answer: The relative viability was 0.569.

Question: What about the relative viability ([16]; first compound 0.06325 µM) of the same compound?
Answer: The relative viability was 0.0759.

Question: And the relative viability ([16]; first compound 0.2 µM)?
Answer: Its relative viability is 0.0557.

Question: What about the relative viability ([17]; first compound 0.002 µM) of the same compound?
Answer: Its relative viability is 0.701.

Question: And the relative viability ([17]; first compound 0.02 µM)?
Answer: Its relative viability is 0.625.

Question: And the relative viability ([17]; first compound 0.06325 µM)?
Answer: The relative viability was 0.315.

Question: And the relative viability ([17]; first compound 0.2 µM)?
Answer: The relative viability was 0.311.

Question: What about the relative viability ([18]; first compound 0.002 µM) of the same compound?
Answer: Its relative viability is 1.08.

Question: And the relative viability ([18]; first compound 0.006325 µM)?
Answer: The relative viability was 1.04.

Question: What about the relative viability ([18]; first compound 0.02 µM) of the same compound?
Answer: Its relative viability is 0.775.

Question: What about the relative viability ([18]; first compound 0.06325 µM) of the same compound?
Answer: Its relative viability is 0.955.

Question: And the relative viability ([18]; first compound 0.2 µM)?
Answer: Its relative viability is 0.97.

Question: And the relative viability ([19]; first compound 0.002 µM)?
Answer: The relative viability was 0.817.

Question: And the relative viability ([19]; first compound 0.006325 µM)?
Answer: Its relative viability is 0.791.

Question: What about the relative viability ([19]; first compound 0.02 µM) of the same compound?
Answer: Its relative viability is 0.877.

Question: And the relative viability ([19]; first compound 0.06325 µM)?
Answer: The relative viability was 0.948.

Question: What about the relative viability ([19]; first compound 0.2 µM) of the same compound?
Answer: Its relative viability is 0.223.

Question: What about the relative viability ([20]; first compound 0.002 µM) of the same compound?
Answer: Its relative viability is 0.215.

Question: What about the relative viability ([20]; first compound 0.006325 µM) of the same compound?
Answer: The relative viability was 0.217.

Question: And the relative viability ([20]; first compound 0.02 µM)?
Answer: Its relative viability is 0.269.

Question: What about the relative viability ([20]; first compound 0.06325 µM) of the same compound?
Answer: The relative viability was 0.231.

Question: And the relative viability ([20]; first compound 0.2 µM)?
Answer: Its relative viability is 0.196.
